Measurements published in US20250333397A1 (REMIX THERAPEUTICS INC., priority 2021, published 2025).
Where two headings read alike, the source gives them in different places.

What was measured:
Format in all cases: cell-based, human
[1] = system: MYB mRNA; assay: RT-qPCR splicing assay, MYB canonical (CJ) and alternative (AJ) junction mRNA; conditions: Homo sapiens; for AC50: read-out: MYB AJ (AC50, increase in AJ mRNA)
Method in brief: (§1)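 CJ and AJ junction levels were quantified by RT-qPCR on lysates, with housekeeper ΔCt normalized to DMSO (ΔΔCt) and expressed as RQ = 2^(-ΔΔCt). Before lysis, K562 or A673 cells had 24 h compound exposure at 37 °C. Dosing was 11 points, 3-fold, from 10 uM final, with DMSO at most 0.25%.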

[2] = system: SMN2 mRNA; assay: RT-qPCR splicing assay panel, SMN2 canonical junction (CJ) mRNA; conditions: Homo sapiens
Method in brief: as §1

[3] = system: Target C mRNA; assay: RT-qPCR splicing assay panel, Target C canonical junction (CJ) mRNA; conditions: Homo sapiens
Method in brief: as §1

[4] = system: HTT mRNA; assay: RT-qPCR splicing assay, HTT canonical (CJ) and alternative (AJ) junction mRNA; conditions: Homo sapiens; for AC50: read-out: HTT AJ (AC50, increase in AJ mRNA)
Method in brief: as §1

[5] = 24 h, Table 3B, A673 or K562 cells, 24 h treatment
[6] = 24 h, Table 3B, A673 or K562 cells, 24 h treatment, read-out: MYB CJ (IC50, decrease in CJ mRNA)
[7] = Table 4B, gene panel, read-out: MYB (IC50, decrease in CJ mRNA levels)
[8] = Table 4B, gene panel, read-out: SMN2 (IC50, decrease in CJ mRNA levels)
[9] = Table 4B, gene panel, read-out: Target C (IC50, decrease in CJ mRNA levels)
[10] = 24 h, Table 3B, A673 or K562 cells, 24 h treatment, read-out: HTT CJ (IC50, decrease in CJ mRNA)
[11] = Table 4B, gene panel, read-out: HTT (IC50, decrease in CJ mRNA levels)
[12] = 24 h, Table 3A, A673 or K562 cells, 24 h treatment
[13] = 24 h, Table 3A, A673 or K562 cells, 24 h treatment, read-out: MYB CJ (IC50, decrease in CJ mRNA)
[14] = canonical junction (CJ) mRNA, RT-qPCR panel, Table 4A, read-out: MYB, decrease in CJ mRNA levels, IC50
[15] = canonical junction (CJ) mRNA, RT-qPCR panel, Table 4A, read-out: SMN2, decrease in CJ mRNA levels, IC50
[16] = canonical junction (CJ) mRNA, RT-qPCR panel, Table 4A, read-out: Target C, decrease in CJ mRNA levels, IC50
[17] = 24 h, Table 3A, A673 or K562 cells, 24 h treatment, read-out: HTT CJ (IC50, decrease in CJ mRNA)
[18] = canonical junction (CJ) mRNA, RT-qPCR panel, Table 4A, read-out: HTT, decrease in CJ mRNA levels, IC50

COc1cc2cc(-c3ccc(N4CCC(NC(C)(C)C)C4)nn3)c(O)cc2nn1 (stereo not drawn) [Compound 819]
1 to 10 µM: AC50 [1, 5] | IC50 [1, 6] | IC50 [1, 7] | IC50 [3, 9] | AC50 [4, 5] | IC50 [4, 10] | IC50 [4, 11]
0.1 to 1 µM: IC50 [2, 8]

COc1cc(-c2ccc(-c3ccc(N4CC[C@@](C)(NCC5CC5)C4)nn3)c(O)c2)ncn1 [Compound 375, 2-{6-[(3R)-3-[(cyclopropylmethyl)amino]-3-methylpyrrolidin-1-yl]pyridazin-3-yl}-5-(6-methoxypyrimidin-4-yl)phenol]
1 to 10 µM: AC50 [1, 12]
< 0.1 µM: IC50 [2, 15] | IC50 [4, 17] | IC50 [4, 18]
0.1 to 1 µM: IC50 [1, 13] | IC50 [1, 14] | IC50 [3, 16] | AC50 [4, 12]

COc1cc(-c2cc(O)c(-c3ccc(N4CC[C@H](NC(C)(C)C)C4)nn3)cc2F)ncn1 [Compound 397]
0.1 to 1 µM: IC50 [1, 13] | IC50 [1, 14] | IC50 [2, 15] | IC50 [3, 16] | AC50 [4, 12] | IC50 [4, 17] | IC50 [4, 18]
1 to 10 µM: AC50 [1, 12]

Oc1cc(-c2ccc(-c3ccc(N4CC[C@@H](NC5CCC5)C4)nn3)c(O)c2)cnn1 [Compound 419, 5-(4-{6-[(3R)-3-(cyclobutylamino)pyrrolidin-1-yl]pyridazin-3-yl}-3-hydroxyphenyl)pyridazin-3-ol]
> 10 µM: AC50 [1, 12]
0.1 to 1 µM: IC50 [2, 15] | IC50 [4, 17] | IC50 [4, 18]
1 to 10 µM: IC50 [1, 13] | IC50 [1, 14] | IC50 [3, 16] | AC50 [4, 12]

CNc1cc(-c2ccc(-c3ccc(N4CC[C@@H](NC(C)(C)C)C4)nn3)c(O)c2)ncn1 [Compound 437, 2-{6-[(3R)-3-(tert-butylamino)pyrrolidin-1-yl]pyridazin-3-yl}-5-[6-(methylamino)pyrimidin-4-yl]phenol]
< 0.1 µM: AC50 [1, 12] | IC50 [1, 13] | IC50 [1, 14] | IC50 [2, 15] | IC50 [3, 16] | AC50 [4, 12] | IC50 [4, 17] | IC50 [4, 18]

Cc1cn(-c2cc(O)c(-c3ccc(N4CC[C@H](NC5CCC5)C4)nn3)cc2F)cn1 [Compound 227, 2-{6-[(3S)-3-(cyclobutylamino)pyrrolidin-1-yl]pyridazin-3-yl}-4-fluoro-5-(4-methylimidazol-1-yl)phenol]
0.1 to 1 µM: AC50 [1, 12] | IC50 [1, 13] | IC50 [1, 14] | IC50 [3, 16]
< 0.1 µM: IC50 [2, 15] | AC50 [4, 12] | IC50 [4, 17] | IC50 [4, 18]

COc1cc(-c2ccc(-c3ccc(N4C[C@@H](F)[C@@H](NC(C)(C)C)C4)nn3)c(O)c2)cnn1 [Compound 218, 2-{6-[(3S,4R)-3-(tert-butylamino)-4-fluoropyrrolidin-1-yl]pyridazin-3-yl}-5-(6-methoxypyridazin-4-yl)phenol]
< 0.1 µM: AC50 [1, 12] | IC50 [1, 13] | IC50 [1, 14] | IC50 [2, 15] | IC50 [3, 16] | AC50 [4, 12] | IC50 [4, 17] | IC50 [4, 18]

CC1(C)CC(Oc2nnc(-c3ccc(-c4cn[nH]c4)cc3O)cc2C#N)CC(C)(C)N1 [Compound 423]
0.1 to 1 µM: IC50 [2, 15]
> 10 µM: AC50 [1, 12] | IC50 [1, 13] | IC50 [1, 14] | IC50 [3, 16]
1 to 10 µM: AC50 [4, 12] | IC50 [4, 17] | IC50 [4, 18]

COc1cc(-c2ccc(-c3ccc(N4CCC(NCC5CC5)C4)nn3)c(O)c2)nc(C)n1 (stereo not drawn) [Compound 371]
1 to 10 µM: IC50 [2, 15] | AC50 [4, 12] | IC50 [4, 17] | IC50 [4, 18]
> 10 µM: AC50 [1, 12] | IC50 [1, 13] | IC50 [1, 14] | IC50 [3, 16]

CN(C1CCN(c2ccc(-c3cc(F)c(-c4cn[nH]c4)cc3O)nn2)C1)C(C)(C)C (stereo in doubt) [Compound 119, 2-{6-[(3S)-3-[tert-butyl(methyl)amino]pyrrolidin-1-yl]pyridazin-3-yl}-4-fluoro-5-(1H-pyrazol-4-yl)phenol]
< 0.1 µM: AC50 [1, 12] | IC50 [1, 13] | IC50 [1, 14] | IC50 [2, 15] | IC50 [3, 16] | AC50 [4, 12] | IC50 [4, 17] | IC50 [4, 18]

CC1(NC2CCN(c3ccc(-c4cc(F)c(-c5cn[nH]c5)cc4O)nn3)C2)CC1 (stereo not drawn) [Compound 111, 4-fluoro-2-(6-{3-[(1-methylcyclopropyl)amino]pyrrolidin-1-yl}pyridazin-3-yl)-5-(1H-pyrazol-4-yl)phenol]
< 0.1 µM: AC50 [1, 12] | IC50 [1, 13] | IC50 [1, 14] | IC50 [2, 15] | IC50 [3, 16] | AC50 [4, 12] | IC50 [4, 17] | IC50 [4, 18]

O=c1cc(-c2cc(O)c(-c3ccc(N4CC[C@@H](NC5CCC5)C4)nn3)cc2F)cc[nH]1 [Compound 220, 4-(4-{6-[(3R)-3-(cyclobutylamino)pyrrolidin-1-yl]pyridazin-3-yl}-2-fluoro-5-hydroxyphenyl)-1H-pyridin-2-one]
0.1 to 1 µM: AC50 [1, 12] | IC50 [1, 13] | IC50 [1, 14] | IC50 [2, 15] | IC50 [3, 16] | AC50 [4, 12] | IC50 [4, 17] | IC50 [4, 18]

Oc1cc(-c2cn[nH]c2)ccc1-c1ccc(N2CC[C@H](NC3CC3)C2)nn1 [Compound 104, 2-{6-[(3S)-3-(cyclopropylamino)pyrrolidin-1-yl]pyridazin-3-yl}-5-(1H-pyrazol-4-yl)phenol; ethane]
0.1 to 1 µM: AC50 [1, 12] | IC50 [1, 13] | IC50 [1, 14] | IC50 [3, 16]
< 0.1 µM: IC50 [2, 15] | AC50 [4, 12] | IC50 [4, 17] | IC50 [4, 18]

COc1cc(-c2ccc(-c3ccc(N4CC[C@@H](NCC5CC5)C4)nn3)c(O)c2)ncn1 [Compound 382, 2-{6-[(3R)-3-[(cyclopropylmethyl)amino]pyrrolidin-1-yl]pyridazin-3-yl}-5-(6-methoxypyrimidin-4-yl)phenol]
0.1 to 1 µM: AC50 [1, 12] | IC50 [1, 13] | IC50 [1, 14] | IC50 [3, 16] | AC50 [4, 12]
< 0.1 µM: IC50 [2, 15] | IC50 [4, 17] | IC50 [4, 18]

Cc1ccc(-c2ccc(-c3ccc(N4CC[C@@H](NC5CCC5)C4)nn3)c(O)c2)cn1 [Compound 293, 2-{6-[(3R)-3-(cyclobutylamino)pyrrolidin-1-yl]pyridazin-3-yl}-5-(6-methylpyridin-3-yl)phenol]
1 to 10 µM: IC50 [1, 13] | IC50 [1, 14] | IC50 [3, 16]
0.1 to 1 µM: AC50 [1, 12] | AC50 [4, 12] | IC50 [4, 17] | IC50 [4, 18]
< 0.1 µM: IC50 [2, 15]

Cc1ncc(-c2cc(O)c(-c3ccc(N4CCC(NC5CCOCC5)C4)nn3)cc2F)s1 (stereo not drawn) [Compound 354, 4-fluoro-5-(2-methyl-1,3-thiazol-5-yl)-2-{6-[3-(oxan-4-ylamino)pyrrolidin-1-yl]pyridazin-3-yl}phenol]
< 0.1 µM: AC50 [1, 12] | IC50 [2, 15] | IC50 [3, 16] | AC50 [4, 12] | IC50 [4, 17] | IC50 [4, 18]
0.1 to 1 µM: IC50 [1, 13] | IC50 [1, 14]

Cc1nc2cc(O)c(-c3ccc(N4CC[C@H](NC(C)(C)C(C)C)C4)nn3)cc2o1 [Compound 875]
< 0.1 µM: IC50 [2, 8] | AC50 [4, 5] | IC50 [4, 10] | IC50 [4, 11]
0.1 to 1 µM: AC50 [1, 5] | IC50 [1, 6] | IC50 [1, 7] | IC50 [3, 9]

CC(C)(C)NC1CCN(c2ccc(-c3cc4ccncc4cc3O)nn2)C1 (stereo not drawn) [Compound 845]
< 0.1 µM: IC50 [2, 8] | AC50 [4, 5] | IC50 [4, 10] | IC50 [4, 11]
0.1 to 1 µM: AC50 [1, 5] | IC50 [1, 6] | IC50 [1, 7] | IC50 [3, 9]
